The values that follow come from ChEMBL document CHEMBL4177745, “2-Methyltetrahydro-3-benzazepin-1-ols - The missing link in SAR of GluN2B selective NMDA receptor antagonists” (Bioorg Med Chem, 2018).

Experiment [1] deals with T1, Sigma intracellular receptor 2 (Rattus norvegicus, UniProt Q5U3Y7).
T1 sequence (Q5U3Y7 whole entry): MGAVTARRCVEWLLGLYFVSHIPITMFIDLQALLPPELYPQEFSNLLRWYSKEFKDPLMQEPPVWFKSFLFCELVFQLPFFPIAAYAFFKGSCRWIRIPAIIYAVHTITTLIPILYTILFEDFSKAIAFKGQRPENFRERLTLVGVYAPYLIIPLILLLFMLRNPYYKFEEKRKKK
The experiment in a line: Displacement of [3H]-DTG from sigma 2 receptor in rat liver membranes after 120 mins by scintillation counting analysis. Type of experiment: cell membranes, Membrane.

Experiment [2] in a line: Displacement of [3H]-ifenprodil from recombinant human GluN1a/GluN2B expressed in L(tk-) cell membranes after 120 mins by scintillation counting analysis.
Experiment [3] concerns the target Sigma non-opioid intracellular receptor 1 (Cavia porcellus, UniProt Q60492). The experiment in a line: Displacement of [3H]-(+)-Pentazocine from sigma 1 receptor in guinea pig brain cortex membranes after 120 mins by scintillation counting analysis. The format is cell membranes.
Experiment [4] in a line: Selectivity ratio of Ki for recombinant human GluN1a/GluN2B expressed in L(tk-) cell membranes to Ki for sigma 1 receptor in guinea pig brain cortex membranes. The format is cell-based.

Chain of Sigma non-opioid intracellular receptor 1 (Q60492 whole entry): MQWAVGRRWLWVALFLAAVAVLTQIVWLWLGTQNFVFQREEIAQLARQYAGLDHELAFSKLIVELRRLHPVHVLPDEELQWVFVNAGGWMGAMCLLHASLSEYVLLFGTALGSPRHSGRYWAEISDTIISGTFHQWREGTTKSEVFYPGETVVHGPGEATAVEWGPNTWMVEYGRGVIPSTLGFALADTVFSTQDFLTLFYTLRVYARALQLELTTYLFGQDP

With `Oc1ccc2c(c1)CCN(CCCCc1ccccc1)CC2O` (centres undefined), the Ki in experiment [1] was greater than 10 µM; in experiment [2], 0.014 µM.

With `OC1CN(CCCCc2ccccc2)CCc2ccccc21` (centres undefined), the Ki came to 0.076 µM in experiment [1], 0.073 µM in experiment [2] and 0.676 µM in experiment [3].

With `C[C@@H]1[C@H](O)c2ccc(O)cc2CCN1CCCCc1ccccc1`, the Ki in experiment [1] was 0.148 µM; in experiment [2] it was 0.017 µM.

For the compound `C[C@@H]1[C@H](O)c2ccccc2CCN1CCCCc1ccccc1` (relative stereo), the Ki stood at 0.126 µM in experiment [1], 0.252 µM in experiment [2] and 0.046 µM in experiment [3]. The Ratio Ki in experiment [4] was 5.

For `C[C@@H]1[C@H](O)c2ccccc2CCN1Cc1ccccc1` (relative stereo), the Ki in experiment [1] stood at 0.894 µM; in experiment [2], 0.259 µM; in experiment [3], 0.261 µM.

As for `C[C@@H]1[C@H](O)c2ccccc2CCN1CCCCCc1ccccc1` (relative stereo), the Ki in experiment [1] is 0.06 µM; in experiment [2] it was 0.056 µM; in experiment [3] it was 0.01 µM. The Ratio Ki in experiment [4] came out at 5.

For the compound `CC(C(O)c1ccc(O)cc1)N1CCC(Cc2ccccc2)CC1` (centres undefined) [IFENPRODIL], the Ki in experiment [2] was 0.01 µM.
